The values that follow come from patent US6344439B1, “Agents for promoting bone formation” (priority 1995, dated 2002).

Read-outs that look alike come from different tables or passages of the source.

In data set [1] the test system is osteoblasts of rat fetal calvaria. Particulars: for No. of bone tuberculum: Tables 1-2 experiment (non-treated 146.5 ± 10.9); for No. of bone tuberculum / Calcified area: mean ± SD n=4.
For data set [2] the test system is unchanged. In kind it is cell-based. Particulars: for Alkaline phosphatase activity: mean ± SD n=4; for Effect on alkaline phosphatase activity (in words): at 10^−8M.
[3] abbreviates: 10^−8M, Table 1 experiment (non-treated 0.044 ± 0.014).
Where [4] appears, read: 10^−8M, Table 3 experiment (non-treated 0.084 ± 0.008).
The mark [5] stands for this setting: 10^−8M, Table 3 experiment (non-treated 4.46 ± 0.83).

“Gly-Arg-Gly-Asp-Ser (GRGDS) [reference compound]”: the “No. of bone tuberculum” value in data set [1] (10^−4M) is reported as 168.3 ± 17.1 per well; in data set [1] (10^−6M) it was 166.5 ± 10.6 per well. Also, the “Effect on calcification (in words)” value is on record as “completely prevent” in data set [1] (at 10^−4M) and “promote” in data set [1] (at 10^−6M). In data set [1] (at 10^−6M and 10^−4M ("these concentrations")), the “Effect on the number of bone tuberculum (in words)” value is “tendency to be increased”.
Consider `C[C@@H]1C[C@H]2[C@@H]3CCC4=CC(=O)C=C[C@]4(C)[C@@]3(F)[C@@H](O)C[C@]2(C)[C@@]1(O)C(=O)CO` [Dexamethasone, reference compound], for which the Alkaline phosphatase activity in data set [2] (setting [3]) came out at 0.181 ± 0.018 μM/min/well; in data set [2] (setting [4]) it was 0.143 ± 0.015 μM/min/well. The Calcified area in data set [1] (setting [5]) was determined as 13.82 ± 1.20 mm^2/well; in data set [1] (10^−8M, Table 4 experiment (non-treated 2.56 ± 0.11)) it was 12.17 ± 1.05 mm^2/well. The “No. of bone tuberculum” value in data set [1] (10^−8M) is reported as 307.3 ± 34.1 per well.
Regarding Kistrin, the Alkaline phosphatase activity is given as 0.085 ± 0.009 μM/min/well in data set [2] (10^−5M, Table 3 experiment (non-treated 0.084 ± 0.008)); 0.040 ± 0.003 μM/min/well in data set [2] (10^−6M, Table 1 experiment (non-treated 0.044 ± 0.014)); 0.119 ± 0.008 μM/min/well in data set [2] (10^−6M, Table 3 experiment (non-treated 0.084 ± 0.008)); 0.051 ± 0.007 μM/min/well in data set [2] (10^−7M, Table 1 experiment (non-treated 0.044 ± 0.014)); 0.133 ± 0.006 μM/min/well in data set [2] (10^−7M, Table 3 experiment (non-treated 0.084 ± 0.008)); 0.067 ± 0.005 μM/min/well in data set [2] (setting [3]). The Alkaline phosphatase activity in data set [2] (setting [4]) is 0.126 ± 0.006 μM/min/well; in data set [2] (10^−9M, Table 1 experiment (non-treated 0.044 ± 0.014)) it was 0.051 ± 0.008 μM/min/well. Moreover, the “Effect on alkaline phosphatase activity (in words)” value in data set [2] is “promote”; in data set [2] (listed as kistrin) it was “Promoted”. In addition, the Calcified area in data set [1] (10^−5M, Table 3 experiment (non-treated 4.46 ± 0.83)) stood at 4.54 ± 0.88 mm^2/well; in data set [1] (10^−6M, Table 3 experiment (non-treated 4.46 ± 0.83)), 7.93 ± 1.37 mm^2/well; in data set [1] (10^−7M, Table 3 experiment (non-treated 4.46 ± 0.83)) it was 11.25 ± 1.04 mm^2/well; in data set [1] (setting [5]) it was 9.87 ± 1.04 mm^2/well. In addition, the “No. of bone tuberculum” value in data set [1] (10^−6M) was 147.8 ± 14.2 per well; in data set [1] (10^−7M) it was 189.5 ± 16.3 per well; in data set [1] (10^−8M), 161.8 ± 19.2 per well; in data set [1] (10^−9M), 153.8 ± 12.3 per well. Besides, the “Effect on calcification (in words)” value in data set [1] (at 10^−6M) is “prevented completely”; in data set [1] (at 10^−7 and 10^−8M) it was “promote”. For the same compound, the “Effect on the number of bone tuberculum (in words)” value in data set [1] (at 10^−6M) was “not observed to affect”; in data set [1] (at 10^−7 and 10^−8M) it was “promote”.
